Laboratory results published in ChEMBL document CHEMBL1201862, “PubChem BioAssay data set” (2004).
Several values for one entry are separate records, joined by “and”; a condition that tells them apart may be missing. Equal entries are not always repeated.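 How tested: cells in 96-well plates exposed to compound for 48 hours at five concentrations. Abbreviation: GI50, concentration required for 50% inhibition of growth.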 Activity calls are given as the source filed them. No stated cut-off is given here; in the data, active = GI50 up to about 1.1 µM and inactive = higher. Non-standard residues stand in square brackets, D forms with d. Square brackets hold non-standard residues; d marks the D form. Residues, ends and D or L forms follow the SMILES beside them. Peptide text beside a SMILES is read from it. * marks the point of attachment. ξ: configuration not given here. *: point of attachment. ξF = NC(Cc1ccccc1)C(=O)O; Ac5c = NC1(C(=O)O)CCCC1; Cbz = O=C(OCc1ccccc1)*; Boc = CC(C)(C)OC(=O)*; Aib = CC(C)(N)C(=O)O; tBu = CC(C)(C)*

Tests used:
Test in all cases: NCI-60 cell line screen, 48 h
[1] = test system: A549
[2] = test system: EKVX
[3] = test system: HCT-116
[4] = test system: HCT-15
[5] = test system: Hs-578T
[6] = test system: IGROV-1
[7] = test system: KM12
[8] = test system: MCF7
[9] = test system: MDA-MB-231
[10] = test system: MDA-MB-435
[11] = test system: MOLT-4
[12] = test system: OVCAR-3
[13] = test system: OVCAR-4
[14] = test system: PC-3
[15] = test system: SF-268
[16] = test system: SR
[17] = test system: SW-620
[18] = test system: U-251
[19] = test system: RXF 393

SMILES	GI50 [1]	GI50 [2]	GI50 [3]	GI50 [4]	GI50 [5]	GI50 [6]	GI50 [7]	GI50 [8]	GI50 [9]	GI50 [10]	GI50 [11]	GI50 [12]	GI50 [13]	GI50 [14]	GI50 [15]	GI50 [16]	GI50 [17]	GI50 [18]	GI50 [19]
O=C1CSC(c2ccc(Cl)cc2)N1c1ccc(-n2c(-c3ccccc3)nc3ccccc3c2=O)cc1 (stereo not given)	60.8 µM (inactive)	> 100 µM (inactive)	34.3 µM (inactive)	20.4 µM	52.7 µM (inactive)	31.9 µM (inactive)	24.4 µM (inactive)	30.8 µM (inactive)	33.2 µM (inactive)	56 µM (inactive)	21.2 µM (inactive)	> 100 µM (inactive)	12.9 µM (inactive)	53.8 µM (inactive)	88.1 µM (inactive)	77.4 µM (inactive)	76 µM (inactive)	88.5 µM (inactive)	
O=C(NC1(c2cc3ccccc3s2)CCCCC1)C1CCC1	> 100 µM (inactive)	> 100 µM (inactive)	> 100 µM (inactive)	> 100 µM	37.1 µM (inactive)	> 100 µM (inactive)	> 100 µM (inactive)	> 100 µM (inactive)	69.5 µM (inactive)	> 100 µM (inactive)	> 100 µM (inactive)	> 100 µM (inactive)	97.5 µM (inactive)	> 100 µM (inactive)		> 100 µM (inactive)	> 100 µM (inactive)	> 100 µM (inactive)	> 100 µM (inactive)
CC(=O)OI1NC(=O)c2ccccc21	> 100 µM (inactive)	> 100 µM (inactive)	> 100 µM (inactive)	> 100 µM	> 100 µM (inactive)	> 100 µM (inactive)	> 100 µM (inactive)	93.5 µM (inactive)	> 100 µM (inactive)	> 100 µM (inactive)	> 100 µM (inactive)	> 100 µM (inactive)	> 100 µM (inactive)	> 100 µM (inactive)	> 100 µM (inactive)	> 100 µM (inactive)	> 100 µM (inactive)	> 100 µM (inactive)	
O=C(Nc1ccc(Cl)cc1)[C-](C(=O)c1ccc(Br)cc1)[n+]1cccc(-c2ccc(Cl)cc2)n1	3.72 µM (inactive)	3.49 µM (inactive)	3.09 µM (inactive)	3.93 µM	4.25 µM (inactive)	2.77 µM (inactive)	3.1 µM (inactive)	1.41 µM (inactive)	31.2 µM (inactive)	3.07 µM (inactive)	5.05 µM (inactive)	2.92 µM (inactive)	3.65 µM (inactive)	3.95 µM (inactive)	4.62 µM (inactive)	2.27 µM (inactive)	4.3 µM (inactive)	3.87 µM (inactive)	
Cc1ccc(/C=C2/N/C(=N\N=C/C(O)C(O)C(O)CO)NC2=O)cc1 (stereo not given)	> 100 µM (inactive)	> 100 µM (inactive)	> 100 µM (inactive)	89.9 µM and 79.1 µM	> 100 µM (inactive)	> 100 µM (inactive)	> 100 µM (inactive)	> 100 µM (inactive)	> 100 µM (inactive)	> 100 µM (inactive)		52.4 µM (inactive) and 69.8 µM (inactive)	33.1 µM (inactive) and 35.8 µM (inactive)	> 100 µM (inactive)	> 100 µM (inactive)	> 100 µM (inactive)	> 100 µM (inactive)	> 100 µM (inactive)	> 100 µM (inactive)
CN(C)CCCn1c(Cc2ccccc2)nc2cc(C(F)(F)F)ccc21	14.7 µM (inactive)	30.1 µM (inactive)	18 µM (inactive)	24.8 µM	45.6 µM (inactive)	30.2 µM (inactive)	15.7 µM (inactive)	20.5 µM (inactive)	22.4 µM (inactive)	15.9 µM (inactive)	19.8 µM (inactive)	27.9 µM (inactive)	18.6 µM (inactive)	29 µM (inactive)	53.8 µM (inactive)		26.1 µM (inactive)	20 µM (inactive)	21.2 µM (inactive)
CN1CCN(c2ccc3[nH]c(-c4ccc5[nH]c(CCCc6ccc(N(CCCl)CCCl)cc6)nc5c4)nc3c2)CC1	> 100 µM (inactive)		> 100 µM (inactive)	> 100 µM	2.09 µM (inactive)	13.5 µM (inactive)	> 100 µM (inactive)	64.3 µM (inactive)	> 100 µM (inactive)	> 100 µM (inactive)	77.8 µM (inactive)		> 100 µM (inactive)	> 100 µM (inactive)	> 100 µM (inactive)	96.2 µM (inactive)	> 100 µM (inactive)	> 100 µM (inactive)	> 100 µM (inactive)
COc1cc2c(cc1OC)C1C=NC(C2)c2cc(OC)c(OC)cc21 (stereo not given)	78.7 µM (inactive)	85.9 µM (inactive)	> 100 µM (inactive)	85.9 µM	> 100 µM (inactive)	96.4 µM (inactive)	> 100 µM (inactive)	60.1 µM (inactive)	> 100 µM (inactive)	> 100 µM (inactive)	40.5 µM (inactive)	> 100 µM (inactive)	> 100 µM (inactive)	> 100 µM (inactive)	> 100 µM (inactive)	69.3 µM (inactive)	> 100 µM (inactive)	> 100 µM (inactive)	
CCOP(=O)(/C=C/n1ccc(N)nc1=O)OCC	> 100 µM (inactive)	> 100 µM (inactive)	> 100 µM (inactive)	> 100 µM	> 100 µM (inactive)	> 100 µM (inactive)	> 100 µM (inactive)	> 100 µM (inactive)	> 100 µM (inactive)	> 100 µM (inactive)	> 100 µM (inactive)	> 100 µM (inactive)	> 100 µM (inactive)	> 100 µM (inactive)	> 100 µM (inactive)		> 100 µM (inactive)	> 100 µM (inactive)	> 100 µM (inactive)
CC(C)(NC(=O)OCc1ccccc1)C(=O)NC(Cc1ccccc1)C(=O)O (stereo not given) (Cbz-[Aib]-[ξF]-OH)	> 100 µM (inactive)		> 100 µM (inactive)	> 100 µM	> 100 µM (inactive)	> 100 µM (inactive)	> 100 µM (inactive)	> 100 µM (inactive)	> 100 µM (inactive)	> 100 µM (inactive)	> 100 µM (inactive)	> 100 µM (inactive)	> 100 µM (inactive)	> 100 µM (inactive)			> 100 µM (inactive)	> 100 µM (inactive)	
CCOC(=O)c1sc2c(c1OC(=O)c1ccc(Cl)cc1Cl)c(=O)n(-c1ccccc1)c(=S)n2-c1ccccc1	8.55 µM (inactive)	17.1 µM (inactive)	8.13 µM (inactive)	5.08 µM	7.48 µM (inactive)	4.06 µM (inactive)	5.73 µM (inactive)	24.5 µM (inactive)	20.9 µM (inactive)	> 51.2 µM (inactive)	3.17 µM (inactive)	21 µM (inactive)	40.6 µM (inactive)	7.08 µM (inactive)	8.02 µM (inactive)		9.64 µM (inactive)	5.21 µM (inactive)	> 100 µM (inactive)
CC(OC(C)(C)C)C(NC(=O)C(CCCCNC(=O)OC(C)(C)C)NC(=O)C(Cc1c[nH]c2ccccc12)NC(=O)C(N)Cc1ccccc1)C(=O)NC(Cc1ccccc1)C(=O)NC1(C(=O)O)CCCC1 (stereo not given) (H-FWK(Boc)T(tBu)F[Ac5c]-OH; configuration not given here)	> 100 µM (inactive)	> 100 µM (inactive)	> 100 µM (inactive)	> 100 µM	> 100 µM (inactive)	> 100 µM (inactive)	> 100 µM (inactive)	> 100 µM (inactive)	> 100 µM (inactive)	> 100 µM (inactive)	> 100 µM (inactive)	> 100 µM (inactive)	> 100 µM (inactive)	> 100 µM (inactive)	> 100 µM (inactive)		> 100 µM (inactive)	> 100 µM (inactive)	> 100 µM (inactive)
CCOC(=O)c1c2c(n(-c3ccc(OC)cc3)c1C)C(=O)C(=O)c1ccccc1-2	1.51 µM (inactive)	2.01 µM (inactive)	1.33 µM (inactive)	3.65 µM	2.18 µM (inactive)	2.52 µM (inactive)	1.82 µM (inactive)	0.693 µM (active)	1.29 µM (inactive)	0.19 µM (active)		0.419 µM (active)	0.624 µM (active)	2.18 µM (inactive)	1.64 µM (inactive)		1.24 µM (inactive)	1.22 µM (inactive)	1.84 µM (inactive)
C=CCN(c1cc(OC)c2[nH]c(C(=O)OCC)c(C)c2c1[N+](=O)[O-])S(C)(=O)=O	22 µM (inactive)	18.5 µM (inactive)	18.2 µM (inactive)	25.6 µM	17.8 µM (inactive)	33.7 µM (inactive)	23.5 µM (inactive)	22.4 µM (inactive)	11 µM (inactive)	24.7 µM (inactive)	12.6 µM (inactive)	23.8 µM (inactive)	32.4 µM (inactive)	18 µM (inactive)	26.4 µM (inactive)		34.3 µM (inactive)	16.1 µM (inactive)	7.23 µM (inactive)
Cc1nn(-c2ccccn2)c2c1C(SC#N)=C(C=O)CC2	14.8 µM (inactive)	16.9 µM (inactive)	16 µM (inactive)	17.4 µM	33.7 µM (inactive)	11.5 µM (inactive)	16.7 µM (inactive)	10.5 µM (inactive)	18 µM (inactive)	18.1 µM (inactive)	2.57 µM (inactive)	12.3 µM (inactive)		19.7 µM (inactive)	16.5 µM (inactive)	10.1 µM (inactive)	13.7 µM (inactive)	15.5 µM (inactive)	5.16 µM (inactive)
